In experiment [1] the test system is Mycolicibacterium smegmatis. In words: Antimycobacterial activity against Mycobacterium smegmatis MC2 155 ATCC 700084 assessed as growth inhibition at 10 uM after 5 days relative to control. The format is functional. The note with it: MC2 155 ATCC 700084, 120 h, read-out: GI.
Experiment [2] relates to Mycobacterium tuberculosis. As to the kind of experiment: Antimycobacterial activity against Mycobacterium tuberculosis H37Rv ATCC 27294 assessed as growth inhibition at 10 uM after 5 days relative to control. The experiment is classed as functional. Conditions: H37Rv ATCC 27294, 120 h, read-out: GI.

Consider `CCCCCCCCn1cc(CN(CCCC)CCCC)c2cc(F)ccc21`, for which the inhibition of growth at 10 µM in experiment [1] and in experiment [2] was 99% in each case.

With `CCCCN(CCCC)Cc1cn(C/C=C(\C)CCC=C(C)C)c2ccc(F)cc12`, the inhibition of growth at 10 µM in experiment [1] and in experiment [2] was 99% throughout.

In the case of `CCCCCCCCn1cc(CNC23CC4CC(CC(C4)C2)C3)c2c(OC)cccc21`, the inhibition of growth at 10 µM in experiment [1] and in experiment [2] was 99% each time.

For `CCCCCCCCn1cc(CNC23CC4CC(CC(C4)C2)C3)c2cccc(F)c21`, the inhibition of growth at 10 µM in experiment [1] and in experiment [2] was 99% each time.

As to `CCCCCCCCn1cc(CN2CCC(C)CC2)c2cccc(OC)c21`, the inhibition of growth at 10 µM in experiment [1] and in experiment [2] was 99% each time.

In the case of `CCCCCCCCn1cc(CNC23CC4CC(CC(C4)C2)C3)c2ccc(F)cc21`, the inhibition of growth at 10 µM in experiment [1] and in experiment [2] was 99% each time.

Consider `CCCCCCCCn1cc(CN2CCN(CC)CC2)c2cc(F)ccc21`, for which the inhibition of growth at 10 µM in experiment [1] and in experiment [2] was 99% each time.

`CCCN(C)Cc1cn(C/C=C(\C)CCC=C(C)C)c2ccc(F)cc12`: the inhibition of growth at 10 µM in experiment [1] and in experiment [2] was 99% in each case.

`CC(C)=CCC/C(C)=C/Cn1ccc2cc(F)ccc21`: the inhibition of growth at 10 µM in experiment [1] and in experiment [2] was 99% in each case.

Regarding `CCCCCCCCn1cc(CN2CCCCCC2)c2cccc(OC)c21`, the inhibition of growth at 10 µM in experiment [1] and in experiment [2] was 99% throughout.

Turning to `CCCCCCCCn1cc(CN2CCCCC2)c2cc(F)ccc21`, the inhibition of growth at 10 µM in experiment [1] and in experiment [2] was 99% each time.

As to `CCCCCCCCn1cc(CN2CCC(C)CC2)c2cc(F)ccc21`, the inhibition of growth at 10 µM in experiment [1] and in experiment [2] was 99% throughout.

`CCCCCCCCn1cc(CNC23CC4CC(CC(C4)C2)C3)c2cc(F)ccc21`: the inhibition of growth at 10 µM in experiment [1] and in experiment [2] was 99% in each case.

Take `CCCCCCCCn1cc(CN2CCCCCC2)c2cc(OC)ccc21`: the inhibition of growth at 10 µM in experiment [1] and in experiment [2] was 99% throughout.

Turning to `CCCCn1cc(CN2CCCCC2)c2cc(F)ccc21`, the inhibition of growth at 10 µM in experiment [1] and in experiment [2] was 99% in each case.

In the case of `CC(C)=CCC/C(C)=C/Cn1cc(CNC2CCCCCC2)c2cc(F)ccc21`, the inhibition of growth at 10 µM in experiment [1] and in experiment [2] was 99% each time.

`CCCCCCCCn1cc(CN2CCCCC2)c2cc(Br)ccc21`: the inhibition of growth at 10 µM in experiment [1] and in experiment [2] was 99% in each case.

`CCCCCCCCn1cc(CN2CCCCC2)c2ccc(OC)cc21`: the inhibition of growth at 10 µM in experiment [1] and in experiment [2] was 99% throughout.

`CCCCCCCCn1cc(CN2CCOCC2)c2cc(F)ccc21`: the inhibition of growth at 10 µM in experiment [1] and in experiment [2] was 99% each time.

On to `CC(C)=CCC/C(C)=C/Cn1cc(CN2CCCCC2)c2ccccc21`, for which the inhibition of growth at 10 µM in experiment [1] and in experiment [2] was 99% in each case.

Take `CCCCCCCCn1cc(CNC(C)C)c2cc(F)ccc21`: the inhibition of growth at 10 µM in experiment [1] and in experiment [2] was 99% each time.

As to `CCCCCCCCn1cc(CN2CCC3(CC2)OCCO3)c2cc(F)ccc21`, the inhibition of growth at 10 µM in experiment [1] and in experiment [2] was 99% throughout.

Consider `CCCCCCCCn1cc(CN(CC)CC)c2cc(F)ccc21`, for which the inhibition of growth at 10 µM in experiment [1] and in experiment [2] was 99% throughout.

On to `CCCCCCCCn1cc(CN2CCCCC2)c2cc(OC)ccc21`, for which the inhibition of growth at 10 µM in experiment [1] and in experiment [2] was 99% throughout.

For `CCCCCCCCn1cc(CN2CCC(C)CC2)c2cc(OC)ccc21`, the inhibition of growth at 10 µM in experiment [1] and in experiment [2] was 99% in each case.

On to `CC(C)=CCC/C(C)=C/Cn1cc(CN2CCCC2)c2cc(F)ccc21`, for which the inhibition of growth at 10 µM in experiment [1] and in experiment [2] was 99% each time.

As to `CCCCCCCCn1cc(CN2CCC3(CC2)OCCO3)c2c(OC)cccc21`, the inhibition of growth at 10 µM in experiment [1] and in experiment [2] was 99% throughout.

Consider `CC(C)=CCC/C(C)=C/Cn1cc(CNC23CC4CC(CC(C4)C2)C3)c2cc(F)ccc21`, for which the inhibition of growth at 10 µM in experiment [1] and in experiment [2] was 99% in each case.

For `CCCN(CCC)Cc1cn(C/C=C(\C)CCC=C(C)C)c2ccc(F)cc12`, the inhibition of growth at 10 µM in experiment [1] and in experiment [2] was 99% each time.

As to `CCCCCCCCn1cc(CN2CCC3(CC2)OCCO3)c2cccc(F)c21`, the inhibition of growth at 10 µM in experiment [1] and in experiment [2] was 99% in each case.

With `CCN1CCN(Cc2cn(C/C=C(\C)CCC=C(C)C)c3ccc(F)cc23)CC1`, the inhibition of growth at 10 µM in experiment [1] and in experiment [2] was 99% each time.

`CCCCCCCCn1cc(CN2CCCCC2)c2cccc(F)c21`: the inhibition of growth at 10 µM in experiment [1] and in experiment [2] was 99% throughout.

Consider `CC(C)=CCC/C(C)=C/Cn1cc(CN2CCSCC2)c2cc(F)ccc21`, for which the inhibition of growth at 10 µM in experiment [1] and in experiment [2] was 99% throughout.

Consider `CCCCNC(=O)Cn1cc(CN2CCCCC2)c2cc(F)ccc21`, for which the inhibition of growth at 10 µM in experiment [1] and in experiment [2] was 99% each time.

On to `CCCCCCCCn1cc(CN2CCCCC2)c2cc(Cl)ccc21`, for which the inhibition of growth at 10 µM in experiment [1] and in experiment [2] was 99% in each case.

Take `CCCCCCCCn1cc(CN2CCC3(CC2)OCCO3)c2cccc(OC)c21`: the inhibition of growth at 10 µM in experiment [1] and in experiment [2] was 99% throughout.

Take `CCCCCCCCn1cc(CN2CCCCCC2)c2ccc(F)cc21`: the inhibition of growth at 10 µM in experiment [1] and in experiment [2] was 99% throughout.

On to `CCCCCCCCn1cc(CN2CCSCC2)c2cc(F)ccc21`, for which the inhibition of growth at 10 µM in experiment [1] and in experiment [2] was 99% in each case.

Consider `CCCCCCCCn1cc(CNC2CCCCCC2)c2cc(F)ccc21`, for which the inhibition of growth at 10 µM in experiment [1] and in experiment [2] was 99% each time.

Take `CC(C)=CCC/C(C)=C/Cn1cc(CN2CCC(C)CC2)c2cc(F)ccc21`: the inhibition of growth at 10 µM in experiment [1] and in experiment [2] was 99% each time.

Take `CCCCCCCCn1cc(CNC23CC4CC(CC(C4)C2)C3)c2ccc(OC)cc21`: the inhibition of growth at 10 µM in experiment [1] and in experiment [2] was 99% each time.

As for `CCCCCCCCn1cc(CN(CCC)CCC)c2cc(F)ccc21`, the inhibition of growth at 10 µM in experiment [1] and in experiment [2] was 99% each time.

Take `CCCCCCCCn1cc(CN(CC)CCC)c2cc(F)ccc21`: the inhibition of growth at 10 µM in experiment [1] and in experiment [2] was 99% each time.

Turning to `Fc1ccc2c(c1)c(CN1CCCCC1)cn2CCCOc1ccccc1`, the inhibition of growth at 10 µM in experiment [1] and in experiment [2] was 99% throughout.

Take `CCCCCCCCn1cc(CN2CCCCCC2)c2c(OC)cccc21`: the inhibition of growth at 10 µM in experiment [1] and in experiment [2] was 99% in each case.

As to `CCCCCCCCn1cc(CN(C)C)c2cc(F)ccc21`, the inhibition of growth at 10 µM in experiment [1] and in experiment [2] was 99% throughout.

`CCCCCCCCn1cc(CN2CCCCC2)c2c(F)cccc21`: the inhibition of growth at 10 µM in experiment [1] and in experiment [2] was 99% throughout.

Regarding `CCCCCCCCn1cc(CN2CCCCC2)c2ccccc21`, the inhibition of growth at 10 µM in experiment [1] and in experiment [2] was 99% in each case.

On to `CC(C)=CCC/C(C)=C/Cn1cc(CN2CCCCC2)c2cccnc21`, for which the inhibition of growth at 10 µM in experiment [1] and in experiment [2] was 99% throughout.

Turning to `CCCCCCCCn1cc(CN2CCC(C)CC2)c2ccc(F)cc21`, the inhibition of growth at 10 µM in experiment [1] and in experiment [2] was 99% each time.

Consider `COc1ccc2c(c1)c(CN1CCCCC1)cn2C/C=C(\C)CCC=C(C)C`, for which the inhibition of growth at 10 µM in experiment [1] and in experiment [2] was 99% each time.

Turning to `Fc1ccc2c(c1)c(CN1CCCCC1)cn2CCC1CCCCC1`, the inhibition of growth at 10 µM in experiment [1] and in experiment [2] was 99% in each case.

`CCCCCCCCn1cc(CNC23CC4CC(CC(C4)C2)C3)c2cc(OC)ccc21`: the inhibition of growth at 10 µM in experiment [1] and in experiment [2] was 99% each time.

Take `CC(C)=CCC/C(C)=C/Cn1cc(CN2CCCCC2)c2cc(Br)ccc21`: the inhibition of growth at 10 µM in experiment [1] and in experiment [2] was 99% throughout.

On to `CCN(CC)Cc1cn(C/C=C(\C)CCC=C(C)C)c2ccc(F)cc12`, for which the inhibition of growth at 10 µM in experiment [1] and in experiment [2] was 99% in each case.

In the case of `CCCCCCCCn1cc(CN2CCCC2)c2cc(F)ccc21`, the inhibition of growth at 10 µM in experiment [1] and in experiment [2] was 99% in each case.

On to `CCCCCCCCn1cc(CNC2CC2)c2cc(F)ccc21`, for which the inhibition of growth at 10 µM in experiment [1] and in experiment [2] was 99% in each case.

As for `N#CCCCn1cc(CN2CCCCC2)c2cc(F)ccc21`, the inhibition of growth at 10 µM in experiment [1] and in experiment [2] was 99% in each case.

Take `CC(C)=CCC/C(C)=C/Cn1cc(CN(C)C)c2cc(F)ccc21`: the inhibition of growth at 10 µM in experiment [1] and in experiment [2] was 99% each time.

In the case of `CC(C)=CCC/C(C)=C/Cn1cc(CNC2CCCC2)c2cc(F)ccc21`, the inhibition of growth at 10 µM in experiment [1] and in experiment [2] was 99% in each case.

Turning to `CCCCCCCCn1cc(CN(C)CCC)c2cc(F)ccc21`, the inhibition of growth at 10 µM in experiment [1] and in experiment [2] was 99% throughout.

`CCCCCCCCn1cc(CNC2CCCC2)c2cc(F)ccc21`: the inhibition of growth at 10 µM in experiment [1] and in experiment [2] was 99% each time.

On to `CC(C)=CCC/C(C)=C/Cn1cc(CN2CCCCC2)c2cc(Cl)ccc21`, for which the inhibition of growth at 10 µM in experiment [1] and in experiment [2] was 99% each time.

Take `CCCCCCCCn1cc(CN2CCC3(CC2)OCCO3)c2cc(OC)ccc21`: the inhibition of growth at 10 µM in experiment [1] and in experiment [2] was 99% each time.

These data come from ChEMBL document CHEMBL4007488, “Amphiphilic Indole Derivatives as Antimycobacterial Agents: Structure-Activity Relationships and Membrane Targeting Properties” (J Med Chem, 2017).
